Source: US6825209B2, “Compounds having unique CB1 receptor binding selectivity and methods for their production and use” (Research Triangle Institute, priority 2002, dated 2004)
Like-named read-outs stand apart in the source and are kept apart here.

Experiments:
[1] = biological target: T1, G-protein-linked cannabinoid receptors (Rattus norvegicus, UniProt P20272); test: GTP-γ-[35S] binding in whole rat brain; format: biochemical; conditions: for Emax: read-out: Emax, GTP-γ-[35S] in Whole Rat Brain
T1 construct: tissue Charles River or Pel-Freez Biologicals; host or cells: whole rat brain crude membrane homogenate
T1 sequence (P20272 whole entry): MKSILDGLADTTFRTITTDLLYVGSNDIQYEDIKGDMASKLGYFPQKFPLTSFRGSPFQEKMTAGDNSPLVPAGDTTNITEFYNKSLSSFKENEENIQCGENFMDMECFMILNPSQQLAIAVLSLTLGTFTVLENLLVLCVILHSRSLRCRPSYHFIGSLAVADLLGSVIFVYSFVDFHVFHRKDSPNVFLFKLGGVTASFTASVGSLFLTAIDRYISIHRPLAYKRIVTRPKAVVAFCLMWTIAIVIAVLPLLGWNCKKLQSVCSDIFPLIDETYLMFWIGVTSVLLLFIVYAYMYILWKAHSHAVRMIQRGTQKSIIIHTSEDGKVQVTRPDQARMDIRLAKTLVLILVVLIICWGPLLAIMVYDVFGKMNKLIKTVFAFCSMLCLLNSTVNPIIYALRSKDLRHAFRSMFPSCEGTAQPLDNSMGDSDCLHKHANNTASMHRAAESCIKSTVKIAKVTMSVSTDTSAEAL
Text: Cannabinoid receptor-mediated alteration in GTP-γ-[^35S] binding.
Introduction. The purpose of this assay was to characterize the functional activity of lead compounds identified by the radioligand competition binding assays described above. Data from the GTP-γ-[^35S] binding assay was used to determine if a compound was an agonist, antagonist or inverse agonist at G-protein-linked cannabinoid receptors. Agonist binding to a G-protein-linked receptor results in an increased affinity of the G-protein α-subunit for GTP relative to GDP. Eventually, an active αGTP complex forms to complete the stimulus-effector coupling. The α-subunit has intrinsic GTPase activity which generates a free α-subunit which can recombine with the β- and γ-subunits readying the G-protein for another signal transduction cycle. In the current assay, GTP-γ-[^35S] cannot be hydrolyzed by the α-subunit. Thus, the amount of bound GTP-γ-[^35S] is a marker for G-protein activation. In this assay, an agonist increases basal GTP-γ-[^35S] binding, an inverse agonist decreases basal binding and basal binding would be unaffected by an antagonist.
Experimental Design. The specific binding of GTP-γ-[^35S], in the absence of test compound, was termed “basal” activity. Test compounds were characterized as agonist, antagonist, or inverse agonist based on their effect on basal activity. […] The concentrations spanned two orders of magnitude because affinity may not be related to efficacy. […] Effects of the test compounds are reported as the percent change from basal. More thorough dose-response analysis may be run to determine, for example, if a compound is a full or partial agonist.
Methods. […] In a final volume of 0.5 mL, each assay tube contained: 0.02 mg crude membrane homogenate (0.1 mL), 200 μM GDP (0.05 mL; to reduce basal G-protein activity), 0.1 nM GTP-γ-[^35S] (0.05 mL) and several concentrations of test compound (0.05 mL) or an equivalent volume of vehicle (used for determination of total binding). Nonspecific binding was determined in the presence of 100 μM unlabeled GTP-γ-S (0.05 mL). Duplicate samples were incubated for 1 h at 30° C. Since this assay is amenable for use with high throughput screening methods, the binding assays were run using a 96-well plate format. Specific binding was calculated as total binding-nonspecific binding.

CB1 receptor = biological target: T2, CB1 receptor (Rattus norvegicus, UniProt P20272); test: Radioligand displacement in whole rat brain (CB1) membrane preparations; format: binding
T2 construct: Whole rat brains or dissected regions from live CD rats; tissue Charles River or Pel-Freez Biologicals; host or cells: whole rat brain (CD rats), P2 membrane
T2 sequence (P20272 whole entry): as above
Text: CB1 receptor affinity in rat brain.
Methods—membrane preparation from brain. The methods for tissue preparation are essentially those described by Devane et al. (1988) as modified by Compton et al. (1993) and later by Thomas et al. (1998). Whole rat brains or dissected regions from live CD rats from Charles River or Pel-Freez Biologicals (Rogers, Ark.), or human brain sections obtained from the National Disease Research Institute, were allowed to thaw to room temperature on ice. Both whole brain and dissected brain regions were used because different brain regions may express different cannabinoid receptor subtypes (Skaper et al., 1996; Thomas et al., 1998). The tissue was homogenized with a Kontes Potter-Elvehjem glass-Teflon grinding system (Fisher Scientific, Springfield, N.J.) in buffer 1 (320 mM sucrose, 2 mM EDTA, 5 mM MgCl2. The homogenate was centrifuged at 1600 g for 10 min. The supernatant was saved and combined with the two subsequent supernatants obtained from washing and 1600 g centrifugation of the P1 pellet. The combined supernatant fractions were then centrifuged at 39,000 g for 15 min. The P2 pellet was resuspended in 50 mL of buffer 2 (50 mM Tris.HCl, 2 mM EDTA, 5 mM MgCl2, pH 7.0), incubated at 37° C. for 10 min, then centrifuged at 23,000 g for 10 min. The P2 membrane was resuspended in 50 mL of buffer 2, incubated at 30° C. for 40 min, then centrifuged at 11,000 g for 15 min. The final wash-treated P2 pellet was resuspended in assay buffer 3 (50 mM Tris.HCl, 1 mM EDTA, 3 MM MgCl2, pH 7.4). Protein concentrations were determined by the method of Bradford (1976) using Coomassie brilliant blue dye (Bio-Rad, Richmond, Calif.) and BSA standards (bovine serum albumin, fatty acid free, Sigma Chemical Co., St. Louis, Mo.) prepared in assay buffer 3. The membrane preparation was divided into aliquots and stored at −80° C. For use in the binding assay, an aliquot of frozen membranes was thawed on ice and diluted to a concentration of ca. 0.2 mg/mL in assay buffer.
Methods—binding assay in brain membrane preparation. The methods for ligand binding are essentially those described by Devane et al. (1988) with the exception that we used a filtration assay. […] All cannabinoid analogs were prepared by suspension in buffer A from a 1-5 mg/mL ethanolic stock. Following incubation at 30° C. for 1 h, binding was terminated by vacuum filtration through pretreated filters in a 96-well sampling manifold (Millipore, Bedford, Mass.). Reaction vessels were washed at least 3 times with 1 mL of ice cold buffer B (50 mM Tris.HCl, 1 mg/mL BSA). The filter plates were air-dried and sealed on the bottom. Liquid scintillant was added to the wells and the top sealed. After incubating the plates in cocktail for at least 2 h, the radioactivity present was determined by liquid scintillation spectrometry. Assays were done in duplicate, and results represent the combined data of three to six independent experiments. All assays were performed in polypropylene test tubes. The GF/C glassfiber filter plates (Packard, Meriden, Conn.) were pretreated in buffer B for at least 1 h.
(§1) Data analysis. Saturation and displacement data were analyzed by unweighted nonlinear regression of receptor binding data. For displacement studies, curve-fitting and IC50 calculation were done with GraphPad Prism (GraphPad Software, Inc., San Diego, Calif.), which fits the data to one and two-site models and compares the two fits statistically. A similar approach was used for the analysis of isotherm data for calculation of Kd's. A two-site fit was accepted only if it was statistically significant (p<0.05) and the following results were not observed:
(§2) IC50 values were then converted to Ki values by reported methods (Cheng and Prusoff, 1973). The statistical evaluation of curve-fitting data allowed for a non-arbitrary conclusion based on the displacement data.

human CB2 receptor = biological target: T3, human CB2 receptor (Homo sapiens, UniProt P34972); test: Displacement of 3H-CP55,940 in human CB2 receptor-transfected cells (CHO-K1); format: binding; conditions: radioligand 3H-CP55940, Tables 6 and 7
T3 construct: expressed in transfected cells; host or cells: CHO-K1
T3 sequence (P34972 whole entry): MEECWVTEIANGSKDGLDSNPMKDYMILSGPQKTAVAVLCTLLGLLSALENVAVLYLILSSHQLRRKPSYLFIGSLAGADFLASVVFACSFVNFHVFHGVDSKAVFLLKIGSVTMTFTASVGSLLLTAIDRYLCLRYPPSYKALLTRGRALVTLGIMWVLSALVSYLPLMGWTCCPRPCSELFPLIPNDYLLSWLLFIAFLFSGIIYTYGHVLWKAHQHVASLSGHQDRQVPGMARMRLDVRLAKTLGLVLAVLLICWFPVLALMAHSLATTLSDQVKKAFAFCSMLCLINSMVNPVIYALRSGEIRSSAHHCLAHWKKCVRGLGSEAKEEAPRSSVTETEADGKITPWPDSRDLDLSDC
Method: Human CB2 receptor affinity. The relative selectivity of the analogs for CB1 versus CB2 receptors varied modestly regardless of the structural modifications examined to date.
(§3) Methods—binding assay in transfected cell lines. The methods used for performing binding assays in transfected cells expressing human CB1 or CB2 receptors are those used above. The CB1 receptor involved a HEK-293 expression system whereas the CB2 receptor was expressed in CHO-K1 cells. […] The incubations and separations were then performed as described above for rat brain membrane preparations.
as §1, §2

human CB1 receptor = biological target: T4, human CB1 receptor (Homo sapiens, UniProt P21554); test: Radioligand displacement in human CB1 receptor-transfected cells (HEK-293); format: binding
T4 construct: expressed in transfected cells; host or cells: HEK-293
T4 sequence (P21554 whole entry): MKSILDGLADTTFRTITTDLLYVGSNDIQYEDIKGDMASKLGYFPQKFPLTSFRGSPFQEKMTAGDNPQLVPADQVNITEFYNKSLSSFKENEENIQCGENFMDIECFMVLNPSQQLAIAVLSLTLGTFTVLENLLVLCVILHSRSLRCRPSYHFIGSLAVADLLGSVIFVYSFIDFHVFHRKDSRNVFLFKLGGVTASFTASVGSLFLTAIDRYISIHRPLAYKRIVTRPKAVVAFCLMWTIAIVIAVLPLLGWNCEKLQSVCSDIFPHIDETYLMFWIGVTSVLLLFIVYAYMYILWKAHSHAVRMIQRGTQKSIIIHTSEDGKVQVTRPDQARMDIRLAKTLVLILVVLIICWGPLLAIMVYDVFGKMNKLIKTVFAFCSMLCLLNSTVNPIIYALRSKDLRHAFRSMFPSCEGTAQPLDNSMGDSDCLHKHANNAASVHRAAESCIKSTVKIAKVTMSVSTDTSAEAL
Method: Human CB1 receptor affinity. The alkyl amide analogs of the present invention were examined using transfected cell lines expressing the human CB1 receptor (Table 3).
as §3, §1, §2

[2] = whole rat brain membranes, effects reported as percent change from basal
[3] = whole rat brain membranes, inverse agonist/antagonist activity, read-out: EC50, GTP-γ-[35S] in Whole Rat Brain
[4] = read-out: Ki, displacement of 3H-CP55940, whole rat brain membranes, radioligand 3H-CP55940, Tables 1 and 2
[5] = whole rat brain membranes, radioligand 3H-CP55940, Tables 1 and 2
[6] = whole rat brain membranes, radioligand 3H-SR141716A, Tables 1 and 2
[7] = read-out: Ki, displacement of 3H-CP55940, human CB2 transfected cells
[8] = Ki, displacement of 3H-CP55940, whole rat brain membranes, radioligand 3H-CP55940, Tables 1 and 2
[9] = Ki, displacement of 3H-SR141716A, whole rat brain membranes, radioligand 3H-SR141716A, Tables 1 and 2
[10] = Ki, displacement of 3H-WIN55212-2, whole rat brain membranes, radioligand 3H-WIN55212-2, Tables 1 and 2
[11] = whole rat brain membranes, radioligand 3H-WIN55212-2, Tables 1 and 2
[12] = Ki, displacement of 3H-CP55940, human CB2 transfected cells
[13] = EC50, GTP-γ-[35S] in Whole Rat Brain, whole rat brain membranes, inverse agonist/antagonist activity
[14] = read-out: Ki, displacement of 3H-SR141716A, whole rat brain membranes, radioligand 3H-SR141716A, Tables 1 and 2

Ki (CB1 receptor; [4]) | Max. Disp. %, 3H-CP55940 (CB1 receptor; [5]) | Max. Disp. %, 3H-SR141716A (CB1 receptor; [6]) | Max. Disp. %, 3H-CP55940 (human CB2 receptor; human CB2 transfected cells) | Ki (human CB2 receptor; [7]) | Compound | Emax, GTP-γ-[35S] in Whole Rat Brain [1, 2] | EC50 [1, 3] | further results
 |  |  |  |  | CCCCCCCn1nc(C(=O)NN2CCCCC2)c(C)c1-c1ccc(Cl)cc1 [MF10278-20-15] | −85.7 | 156000 nM | 
154 nM | 88.7% | 97.6% | 54.3% | 5720 nM | Cc1c(C(=O)NCCCCO)nn(-c2ccc(Cl)cc2Cl)c1-c1ccc(Cl)cc1 [MF9725-95-31] |  | 304000 nM | Emax [1, 2]: -79.5%
374 nM | 68.4% | 85.9% | 80.8% | 12100 nM | Cc1c(C(=O)NN)nn(-c2ccc(Cl)cc2Cl)c1-c1ccc(Cl)cc1 [MF9879-34-8] |  |  | Ki (CB1 receptor; [14]): 602 nM; Emax [1, 2]: -71.7%; EC50 ([1]; whole rat brain membranes, value above highest concentration tested (footnote), read-out: EC50, GTP-γ-[35S] in Whole Rat Brain, value is above highest concentration on displacement curve): ≥ 419000 nM
160 nM | 86.6% | 100% | 43.1% | 1250 nM | Cc1c(C(=O)NCCCO)nn(-c2ccc(Cl)cc2Cl)c1-c1ccc(Cl)cc1 [MF9725-94-31] |  | 241000 nM | Ki (CB1 receptor; [14]): 156 nM; Emax [1, 2]: -83.3%
 |  |  |  |  | Cc1c(C(=O)NN2CCCCC2)nn(-c2ccccc2)c1-c1ccc(Cl)cc1 [MF9879-64-23] | −47.2 | 361000 nM | 
 |  | 96.8% | 47.5% |  | Cc1c(C(=O)NC(C)CO)nn(-c2ccc(Cl)cc2Cl)c1-c1ccc(Cl)cc1 (single isomer, unassigned) [MF9725-105-38] | −83.8 | 294000 nM | Ki (CB1 receptor; [8]): 117 nM; Ki (CB1 receptor; [9]): 123 nM; Ki (human CB2 receptor; [12]): 5900 nM
 |  |  |  |  | CCCCCCn1nc(C(=O)NN2CCCCC2)c(C)c1-c1ccc(Cl)cc1 [MF10278-22-16] | −71.5 | 74700 nM | 
 |  |  |  |  | Cc1c(C(=O)NN2CCCCC2)nn(C2CCCCC2)c1-c1ccc(Cl)cc1 [MF9879-117-24] | −71.7 | 108000 nM | 
117 nM | 89.7% | 100% | 52.1% |  | Cc1c(C(=O)NC(C)CO)nn(-c2ccc(Cl)cc2Cl)c1-c1ccc(Cl)cc1 (single isomer, unassigned) [MF9725-106-39] | −83.0 | 292000 nM | Ki (CB1 receptor; [9]): 99.8 nM; Ki (human CB2 receptor; [12]): 1770 nM

Compound | Ki (CB1 receptor; [4]) | Max. Disp. %, 3H-CP55940 (CB1 receptor; [5]) | Max. Disp. %, 3H-SR141716A (CB1 receptor; [6]) | Max. Disp. %, 3H-CP55940 (human CB2 receptor; human CB2 transfected cells) | Ki (human CB2 receptor; [7]) | Emax, GTP-γ-[35S] in Whole Rat Brain [1, 2] | EC50 [1, 3] | further results
CCCCCCCCCNC(=O)c1nn(-c2ccc(Cl)cc2Cl)c(-c2ccc(Cl)cc2)c1C [MF10110-10-21] |  | 79.5% | 85.8% | 53.8% |  |  |  | Ki (CB1 receptor; [8]): 333 nM; Ki (CB1 receptor; [9]): 88.2 nM; Ki (CB1 receptor; [10]): 68.2 nM; Max. Disp. %, 3H-WIN55212-2 (CB1 receptor; [11]): 68.6%; Max. Disp. %, 3H-CP55940 (human CB1 receptor): 68.8%; Max. Disp. %, 3H-SR141716A (human CB1 receptor): 86.9%; Max. Disp. %, 3H-WIN55212-2 (human CB1 receptor): 28.3%; Ki (human CB1 receptor; displacement of 3H-CP55940): 307 nM; Ki (human CB1 receptor; displacement of 3H-SR141716A): 56.5 nM; Ki (human CB1 receptor; displacement of 3H-WIN55212-2): 3550 nM; Ki (human CB2 receptor; [12]): 22900 nM; EC50 [1, 13]: 294000 nM; Emax [1]: -20.1%
CCCCCNC(=O)c1nn(-c2ccc(Cl)cc2Cl)c(-c2ccc(Cl)cc2)c1C [MF9725-67-17] | 11.4 nM | 91.4% | 100% | 75.9% | 1110 nM |  |  | Ki (CB1 receptor; [10]): 12.6 nM; Ki (CB1 receptor; [14]): 6.83 nM; Max. Disp. %, 3H-WIN55212-2 (CB1 receptor; [11]): 94.4%; Max. Disp. %, 3H-CP55940 (human CB1 receptor): 87.1%; Max. Disp. %, 3H-SR141716A (human CB1 receptor): 89.9%; Max. Disp. %, 3H-WIN55212-2 (human CB1 receptor): 89.9%; Ki (human CB1 receptor; displacement of 3H-CP55940): 14.6 nM; Ki (human CB1 receptor; displacement of 3H-SR141716A): 6.35 nM; Ki (human CB1 receptor; displacement of 3H-WIN55212-2): 18.7 nM; EC50 [1, 13]: 5270 nM; Emax [1]: -7.4%
SR144528 [reference compound] |  | 84.7% | 68.6% | 88.4% |  | −27.7 |  | Max. Disp. %, 3H-CP55940 (CB1 receptor; whole rat brain, 3H-CP55940, Table 4, parallel synthesis analogs, n = 1): 84.7%; Max. Disp. %, 3H-SR141716A (CB1 receptor; whole rat brain, 3H-SR141716A, Table 4, parallel synthesis analogs, n = 1): 68.6%
